Measurements reported in PubChem BioAssay (NCI).
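Growth conditions: 96-well plates. Treatment: test compound, 48 hours, 5 concentrations. Analysis: linear interpolation between bracketing concentrations; unreached endpoints set to highest concentration. The concentration for 50% growth inhibition is given as GI50. Definition used: TGI = concentration required for complete inhibition of growth.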

Columns and labels:
Experiment in all cases: inhibition of tumour cell growth, NCI panel, 48 h
SR leukemia = system: SR leukemia
MCF7 breast = system: MCF7 breast
UO-31 renal = system: UO-31 renal
MDA-MB-231 breast = system: MDA-MB-231 breast
TK-10 renal = system: TK-10 renal
A498 renal = system: A498 renal
MOLT-4 leukemia = system: MOLT-4 leukemia
UACC-62 melanoma = system: UACC-62 melanoma
SK-MEL-2 melanoma = system: SK-MEL-2 melanoma
SF-268 CNS = system: SF-268 CNS
HCT-116 colon = system: HCT-116 colon
ACHN renal = system: ACHN renal
HCC-2998 colon = system: HCC-2998 colon
HOP-62 NSCLC = system: HOP-62 NSCLC
BT-549 breast = system: BT-549 breast
DU-145 prostate = system: DU-145 prostate
SK-MEL-28 melanoma = system: SK-MEL-28 melanoma
SW-620 colon = system: SW-620 colon
HS 578T breast = system: HS 578T breast
OVCAR-4 ovarian = system: OVCAR-4 ovarian
SF-539 CNS = system: SF-539 CNS
KM12 colon = system: KM12 colon
A549 NSCLC = system: A549 NSCLC
NCI-H23 lung = system: NCI-H23 lung
EKVX NSCLC = system: EKVX NSCLC
SNB-19 CNS = system: SNB-19 CNS
NCI-H522 lung = system: NCI-H522 lung
M14 melanoma = system: M14 melanoma
OVCAR-3 ovarian = system: OVCAR-3 ovarian
OVCAR-8 ovarian = system: OVCAR-8 ovarian
NCI-H226 lung = system: NCI-H226 lung
HT29 colon = system: HT29 colon
RPMI-8226 leukemia = system: RPMI-8226 leukemia
NCI/ADR-RES ovarian = system: NCI/ADR-RES ovarian
SNB-75 CNS = system: SNB-75 CNS
HCT-15 colon = system: HCT-15 colon
SK-MEL-5 melanoma = system: SK-MEL-5 melanoma
OVCAR-5 ovarian = system: OVCAR-5 ovarian
SK-OV-3 ovarian = system: SK-OV-3 ovarian
MDA-MB-435 = system: MDA-MB-435
RXF 393 renal = system: RXF 393 renal
HL-60(TB) leukemia = system: HL-60(TB) leukemia
CCRF-CEM leukemia = system: CCRF-CEM leukemia
786-0 renal = system: 786-0 renal
CAKI-1 renal = system: CAKI-1 renal
T-47D breast = system: T-47D breast
PC-3 prostate = system: PC-3 prostate
K-562 leukemia = system: K-562 leukemia
HOP-92 NSCLC = system: HOP-92 NSCLC
SF-295 CNS = system: SF-295 CNS
IGROV1 ovarian = system: IGROV1 ovarian
U251 CNS = system: U251 CNS
NCI-H460 lung = system: NCI-H460 lung
COLO 205 colon = system: COLO 205 colon
SN12C renal = system: SN12C renal
UACC-257 melanoma = system: UACC-257 melanoma

SMILES: C/C(=N\NC(N)=S)c1nc2ccc(Cl)cc2[nH]1
- GI50 (SR leukemia): 1290 nM
- TGI (SR leukemia): 15.9 µM
- GI50 (MCF7 breast): 1640 nM
- TGI (MCF7 breast): > 50 µM
- GI50 (UO-31 renal): 300 nM
- TGI (UO-31 renal): 3.27 µM
- GI50 (MDA-MB-231 breast): 3.53 µM
- TGI (MDA-MB-231 breast): 37.9 µM
- GI50 (TK-10 renal): 2600 nM
- TGI (TK-10 renal): 20.7 µM
- GI50 (A498 renal): 7.11 µM
- TGI (A498 renal): 22.5 µM
- GI50 (MOLT-4 leukemia): 1780 nM
- TGI (MOLT-4 leukemia): > 50 µM
- GI50 (UACC-62 melanoma): 2200 nM
- TGI (UACC-62 melanoma): 33.8 µM
- GI50 (SK-MEL-2 melanoma): 2810 nM
- TGI (SK-MEL-2 melanoma): 44.6 µM
- GI50 (SF-268 CNS): 2030 nM
- TGI (SF-268 CNS): 11.3 µM
- GI50 (HCT-116 colon): 2110 nM
- TGI (HCT-116 colon): 8.85 µM
- GI50 (ACHN renal): 848 nM
- TGI (ACHN renal): 7.83 µM
- GI50 (HCC-2998 colon): 4.1 µM
- TGI (HCC-2998 colon): 16.4 µM
- GI50 (HOP-62 NSCLC): 2700 nM
- TGI (HOP-62 NSCLC): 11.9 µM
- GI50 (BT-549 breast): 3.57 µM
- TGI (BT-549 breast): 14.3 µM
- GI50 (DU-145 prostate): 1970 nM
- TGI (DU-145 prostate): 8.8 µM
- GI50 (SK-MEL-28 melanoma): 5.7 µM
- TGI (SK-MEL-28 melanoma): 35.9 µM
- GI50 (SW-620 colon): 2960 nM
- TGI (SW-620 colon): > 50 µM
- GI50 (HS 578T breast): 12.2 µM
- TGI (HS 578T breast): > 50 µM
- GI50 (OVCAR-4 ovarian): 1310 nM
- TGI (OVCAR-4 ovarian): 19.9 µM
- GI50 (SF-539 CNS): 2450 nM
- TGI (SF-539 CNS): 9.7 µM
- GI50 (KM12 colon): 2030 nM
- TGI (KM12 colon): 16.2 µM
- GI50 (A549 NSCLC): 2300 nM
- TGI (A549 NSCLC): 9.95 µM
- GI50 (NCI-H23 lung): 5.51 µM
- TGI (NCI-H23 lung): 13.7 µM
- GI50 (EKVX NSCLC): 966 nM
- TGI (EKVX NSCLC): 12.3 µM
- GI50 (SNB-19 CNS): 3.93 µM
- TGI (SNB-19 CNS): > 50 µM
- GI50 (NCI-H522 lung): 1240 nM
- TGI (NCI-H522 lung): 7.9 µM
- GI50 (M14 melanoma): 1800 nM
- TGI (M14 melanoma): 28.5 µM
- GI50 (OVCAR-3 ovarian): 2850 nM
- TGI (OVCAR-3 ovarian): 14.1 µM
- GI50 (OVCAR-8 ovarian): 2570 nM
- TGI (OVCAR-8 ovarian): 15.5 µM
- GI50 (NCI-H226 lung): 2480 nM
- TGI (NCI-H226 lung): 10.1 µM
- GI50 (HT29 colon): 2320 nM
- TGI (HT29 colon): 14 µM
- GI50 (RPMI-8226 leukemia): 3.3 µM
- TGI (RPMI-8226 leukemia): 30.6 µM
- GI50 (NCI/ADR-RES ovarian): 1210 nM
- TGI (NCI/ADR-RES ovarian): > 50 µM
- GI50 (SNB-75 CNS): 2290 nM
- TGI (SNB-75 CNS): 15.6 µM
- GI50 (HCT-15 colon): 857 nM
- TGI (HCT-15 colon): 12.5 µM
- GI50 (SK-MEL-5 melanoma): 2700 nM
- TGI (SK-MEL-5 melanoma): 22.4 µM
- GI50 (OVCAR-5 ovarian): 5.71 µM
- TGI (OVCAR-5 ovarian): 18.1 µM
- GI50 (SK-OV-3 ovarian): 2310 nM
- TGI (SK-OV-3 ovarian): 9.19 µM
- GI50 (MDA-MB-435): 2950 nM
- TGI (MDA-MB-435): 24.6 µM
- GI50 (RXF 393 renal): 4.59 µM
- TGI (RXF 393 renal): 28.7 µM
- GI50 (HL-60(TB) leukemia): 1550 nM
- TGI (HL-60(TB) leukemia): 19.9 µM
- GI50 (CCRF-CEM leukemia): 2110 nM
- TGI (CCRF-CEM leukemia): > 50 µM
- GI50 (786-0 renal): 1590 nM
- TGI (786-0 renal): 7.96 µM
- GI50 (CAKI-1 renal): 287 nM
- TGI (CAKI-1 renal): 1740 nM
- GI50 (T-47D breast): 4.48 µM
- TGI (T-47D breast): > 50 µM
- GI50 (PC-3 prostate): 4.05 µM
- TGI (PC-3 prostate): 48.2 µM
- GI50 (K-562 leukemia): 2370 nM
- TGI (K-562 leukemia): > 50 µM
- GI50 (HOP-92 NSCLC): 12 µM
- TGI (HOP-92 NSCLC): 39.1 µM
- GI50 (SF-295 CNS): 1330 nM
- TGI (SF-295 CNS): 6.33 µM
- GI50 (IGROV1 ovarian): 3.06 µM
- TGI (IGROV1 ovarian): 17.8 µM
- GI50 (U251 CNS): 2600 nM
- TGI (U251 CNS): 13 µM
- GI50 (NCI-H460 lung): 1330 nM
- TGI (NCI-H460 lung): 5.83 µM
- GI50 (COLO 205 colon): 2170 nM
- TGI (COLO 205 colon): 10.1 µM
- GI50 (SN12C renal): 4.72 µM
- TGI (SN12C renal): > 50 µM
- GI50 (UACC-257 melanoma): 5.05 µM
- TGI (UACC-257 melanoma): > 50 µM
